Columns and labels:
Assay type in all cases: in vivo
[1] = tested on: redroot pigweed (Amaranthus retroflexus); experiment: Test A pre/postemergence
How it was run: (§1)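 Visual injury scores on a 0–100 scale, 100 being complete control, were assigned roughly ten days after treatment by comparison with untreated greenhouse controls. Test chemicals, formulated with surfactant in non-phytotoxic solvent, were sprayed onto soil preemergence and onto 1–2-leaf plants 2–10 cm tall postemergence.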

[2] = tested on: barnyardgrass (Echinochloa crus-galli); experiment: Test A pre/postemergence
How it was run: as §1

[3] = tested on: crabgrass (Digitaria sanguinalis); experiment: Test A pre/postemergence
How it was run: as §1

[4] = tested on: giant foxtail (Setaria faberi); experiment: Test A pre/postemergence
How it was run: as §1

[5] = tested on: morningglory (Ipomoea spp.); experiment: Test A pre/postemergence
How it was run: as §1

[6] = tested on: velvetleaf (Abutilon theophrasti); experiment: Test A pre/postemergence
How it was run: as §1

[7] = tested on: bearded (brdd.) sprangletop (Leptochloa fusca ssp. fascicularis); experiment: Test E flooded paddy water application; details: Flood, 21 days, scale 0 to 100 (0 no effect, 100 complete control); for Plant response rating, Sprangletop, Brdd.: 16 g ai/ha
How it was run: (§2)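 Response scored visually on a 0–100 scale (100 = complete control) at 21 days against untreated pots. Treatment was into paddy water 3 cm deep over silt loam, with plants at the 2.0–2.5-leaf stage, grown under 16-h light at 29.5/26.7 °C day/night.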

[8] = tested on: water seeded rice seedlings (Oryza sativa cv. ‘Japonica-M202’); experiment: Test E flooded paddy water application; details: Flood, 21 days, scale 0 to 100 (0 no effect, 100 complete control); for Plant response rating, Rice, Water Seeded: 16 g ai/ha
How it was run: as §2

[9] = tested on: barnyardgrass (Echinochloa crus-galli); experiment: Test E flooded paddy water application; details: Flood, 21 days, scale 0 to 100 (0 no effect, 100 complete control); for Plant response rating, Barnyardgrass: 16 g ai/ha
How it was run: as §2

[10] = tested on: late watergrass (Echinochloa oryzicola); experiment: Test E flooded paddy water application; details: Flood, 21 days, scale 0 to 100 (0 no effect, 100 complete control); for Plant response rating, Watergrass, Late: 16 g ai/ha
How it was run: as §2

[11] = tested on: purple redstem (Ammannia coccinea); experiment: Test E flooded paddy water application; details: Flood, 21 days, scale 0 to 100 (0 no effect, 100 complete control); for Plant response rating, Redstem: 16 g ai/ha
How it was run: as §2

[12] = tested on: transplanted rice seedlings (Oryza sativa cv. ‘Japonica-M202’); experiment: Test E flooded paddy water application; details: Flood, 21 days, scale 0 to 100 (0 no effect, 100 complete control); for Plant response rating, Rice, Transplanted: 16 g ai/ha
How it was run: as §2

[13] = tested on: rice flatsedge (Cyperus iria); experiment: Test E flooded paddy water application; details: Flood, 21 days, scale 0 to 100 (0 no effect, 100 complete control); for Plant response rating, Flatsedge, Rice: 16 g ai/ha
How it was run: as §2

[14] = tested on: junglerice (Echinochloa colona); experiment: Test E flooded paddy water application; details: Flood, 21 days, scale 0 to 100 (0 no effect, 100 complete control); for Plant response rating, Junglerice: 16 g ai/ha
How it was run: as §2

[15] = tested on: smallflower umbrella sedge (Cyperus difformis); experiment: Test E flooded paddy water application; details: Flood, 21 days, scale 0 to 100 (0 no effect, 100 complete control); for Plant response rating, Sedge, Umbrella: 16 g ai/ha
How it was run: as §2

[16] = tested on: early watergrass (Echinochloa oryzoides); experiment: Test E flooded paddy water application; details: Flood, 21 days, scale 0 to 100 (0 no effect, 100 complete control); for Plant response rating, Watergrass, Early: 16 g ai/ha
How it was run: as §2

[17] = tested on: ducksalad (Heteranthera limosa); experiment: Test E flooded paddy water application; details: Flood, 21 days, scale 0 to 100 (0 no effect, 100 complete control); for Plant response rating, Ducksalad: 16 g ai/ha
How it was run: as §2

[18] = Postemergence, 125 g ai/ha, 0 to 100 scale (0 no effect, 100 complete control)
[19] = Postemergence, 500 g ai/ha, 0 to 100 scale (0 no effect, 100 complete control)
[20] = Preemergence, 125 g ai/ha, 0 to 100 scale where 0 is no effect and 100 is complete control, approximately ten days
[21] = Preemergence, 500 g ai/ha, 0 to 100 scale where 0 is no effect and 100 is complete control, approximately ten days

SMILES: CCOC(=O)c1nc(-c2ccc(Cl)c(Cl)c2)nc(N)c1Cl [Compound 73]
- Plant response rating, Pigweed [1, 18]: 75
- Plant response rating, Pigweed [1, 19]: 80
- Plant response rating, Pigweed [1, 20]: 15
- Plant response rating, Pigweed [1, 21]: 60
- Plant response rating, Barnyardgrass [2, 18]: 0
- Plant response rating, Barnyardgrass [2, 19]: 5
- Plant response rating, Barnyardgrass [2, 20]: 5
- Plant response rating, Barnyardgrass [2, 21]: 30
- Plant response rating, Crabgrass [3, 18]: 15
- Plant response rating, Crabgrass [3, 19]: 35
- Plant response rating, Crabgrass [3, 20]: 5
- Plant response rating, Crabgrass [3, 21]: 35
- Plant response rating, Foxtail, Giant [4, 18]: 15
- Plant response rating, Foxtail, Giant [4, 19]: 45
- Plant response rating, Foxtail, Giant [4, 20]: 0
- Plant response rating, Foxtail, Giant [4, 21]: 15
- Plant response rating, Morningglory [5, 18]: 50
- Plant response rating, Morningglory [5, 19]: 65
- Plant response rating, Morningglory [5, 20]: 0
- Plant response rating, Morningglory [5, 21]: 0
- Plant response rating, Velvetleaf [6, 18]: 70
- Plant response rating, Velvetleaf [6, 19]: 75
- Plant response rating, Velvetleaf [6, 20]: 35
- Plant response rating, Velvetleaf [6, 21]: 40
- Sprangletop, Brdd. plant response rating ([7]; 32 g ai/ha): 0
- Sprangletop, Brdd. plant response rating ([7]; 64 g ai/ha): 0
- Sprangletop, Brdd. plant response rating ([7]; 125 g ai/ha): 50
- Sprangletop, Brdd. plant response rating ([7]; 250 g ai/ha): 70
- Plant response rating, Sprangletop, Brdd. [7]: 0
- Rice, Water Seeded plant response rating ([8]; 32 g ai/ha): 0
- Rice, Water Seeded plant response rating ([8]; 64 g ai/ha): 0
- Rice, Water Seeded plant response rating ([8]; 125 g ai/ha): 0
- Rice, Water Seeded plant response rating ([8]; 250 g ai/ha): 0
- Plant response rating, Rice, Water Seeded [8]: 0
- Barnyardgrass plant response rating ([9]; 64 g ai/ha): 0
- Barnyardgrass plant response rating ([9]; 125 g ai/ha): 90
- Barnyardgrass plant response rating ([9]; 250 g ai/ha): 100
- Plant response rating, Barnyardgrass [9]: 0
- Watergrass, Late plant response rating ([10]; 32 g ai/ha): 0
- Watergrass, Late plant response rating ([10]; 64 g ai/ha): 0
- Watergrass, Late plant response rating ([10]; 125 g ai/ha): 0
- Watergrass, Late plant response rating ([10]; 250 g ai/ha): 20
- Plant response rating, Watergrass, Late [10]: 0
- Redstem plant response rating ([11]; 32 g ai/ha): 0
- Redstem plant response rating ([11]; 64 g ai/ha): 90
- Redstem plant response rating ([11]; 125 g ai/ha): 100
- Redstem plant response rating ([11]; 250 g ai/ha): 100
- Plant response rating, Redstem [11]: 0
- Rice, Transplanted plant response rating ([12]; 32 g ai/ha): 0
- Rice, Transplanted plant response rating ([12]; 64 g ai/ha): 0
- Rice, Transplanted plant response rating ([12]; 125 g ai/ha): 0
- Rice, Transplanted plant response rating ([12]; 250 g ai/ha): 0
- Plant response rating, Rice, Transplanted [12]: 0
- Flatsedge, Rice plant response rating ([13]; 32 g ai/ha): 0
- Flatsedge, Rice plant response rating ([13]; 64 g ai/ha): 0
- Flatsedge, Rice plant response rating ([13]; 250 g ai/ha): 45
- Plant response rating, Flatsedge, Rice [13]: 0
- Junglerice plant response rating ([14]; 32 g ai/ha): 0
- Junglerice plant response rating ([14]; 64 g ai/ha): 0
- Junglerice plant response rating ([14]; 125 g ai/ha): 0
- Junglerice plant response rating ([14]; 250 g ai/ha): 0
- Plant response rating, Junglerice [14]: 0
- Sedge, Umbrella plant response rating ([15]; 32 g ai/ha): 0
- Sedge, Umbrella plant response rating ([15]; 64 g ai/ha): 0
- Sedge, Umbrella plant response rating ([15]; 125 g ai/ha): 35
- Sedge, Umbrella plant response rating ([15]; 250 g ai/ha): 85
- Plant response rating, Sedge, Umbrella [15]: 0
- Watergrass, Early plant response rating ([16]; 32 g ai/ha): 0
- Watergrass, Early plant response rating ([16]; 64 g ai/ha): 0
- Watergrass, Early plant response rating ([16]; 125 g ai/ha): 0
- Watergrass, Early plant response rating ([16]; 250 g ai/ha): 0
- Plant response rating, Watergrass, Early [16]: 0
- Ducksalad plant response rating ([17]; 32 g ai/ha): 100
- Ducksalad plant response rating ([17]; 64 g ai/ha): 100
- Ducksalad plant response rating ([17]; 125 g ai/ha): 100
- Ducksalad plant response rating ([17]; 250 g ai/ha): 100
- Plant response rating, Ducksalad [17]: 75

SMILES: COC(=O)c1nc(-c2ccc(C)cc2)nc(N)c1Cl [Compound 84]
- Plant response rating, Pigweed [1, 18]: 60
- Plant response rating, Pigweed [1, 19]: 65
- Plant response rating, Pigweed [1, 20]: 0
- Plant response rating, Pigweed [1, 21]: 80
- Plant response rating, Barnyardgrass [2, 18]: 55
- Plant response rating, Barnyardgrass [2, 19]: 80
- Plant response rating, Barnyardgrass [2, 20]: 0
- Plant response rating, Barnyardgrass [2, 21]: 25
- Plant response rating, Crabgrass [3, 18]: 0
- Plant response rating, Crabgrass [3, 19]: 10
- Plant response rating, Crabgrass [3, 20]: 0
- Plant response rating, Crabgrass [3, 21]: 15
- Plant response rating, Foxtail, Giant [4, 18]: 0
- Plant response rating, Foxtail, Giant [4, 19]: 20
- Plant response rating, Foxtail, Giant [4, 20]: 0
- Plant response rating, Foxtail, Giant [4, 21]: 20
- Plant response rating, Morningglory [5, 18]: 5
- Plant response rating, Morningglory [5, 19]: 20
- Plant response rating, Morningglory [5, 20]: 0
- Plant response rating, Morningglory [5, 21]: 0
- Plant response rating, Velvetleaf [6, 18]: 75
- Plant response rating, Velvetleaf [6, 19]: 90
- Plant response rating, Velvetleaf [6, 20]: 15
- Plant response rating, Velvetleaf [6, 21]: 70
- Sprangletop, Brdd. plant response rating ([7]; 32 g ai/ha): 0
- Sprangletop, Brdd. plant response rating ([7]; 64 g ai/ha): 0
- Sprangletop, Brdd. plant response rating ([7]; 125 g ai/ha): 0
- Sprangletop, Brdd. plant response rating ([7]; 250 g ai/ha): 40
- Plant response rating, Sprangletop, Brdd. [7]: 0
- Rice, Water Seeded plant response rating ([8]; 32 g ai/ha): 0
- Rice, Water Seeded plant response rating ([8]; 64 g ai/ha): 0
- Rice, Water Seeded plant response rating ([8]; 125 g ai/ha): 0
- Rice, Water Seeded plant response rating ([8]; 250 g ai/ha): 30
- Plant response rating, Rice, Water Seeded [8]: 0
- Barnyardgrass plant response rating ([9]; 32 g ai/ha): 0
- Barnyardgrass plant response rating ([9]; 64 g ai/ha): 0
- Barnyardgrass plant response rating ([9]; 125 g ai/ha): 20
- Barnyardgrass plant response rating ([9]; 250 g ai/ha): 85
- Plant response rating, Barnyardgrass [9]: 0
- Watergrass, Late plant response rating ([10]; 32 g ai/ha): 0
- Watergrass, Late plant response rating ([10]; 64 g ai/ha): 0
- Watergrass, Late plant response rating ([10]; 125 g ai/ha): 0
- Watergrass, Late plant response rating ([10]; 250 g ai/ha): 20
- Plant response rating, Watergrass, Late [10]: 0
- Redstem plant response rating ([11]; 32 g ai/ha): 20
- Redstem plant response rating ([11]; 64 g ai/ha): 20
- Redstem plant response rating ([11]; 125 g ai/ha): 70
- Redstem plant response rating ([11]; 250 g ai/ha): 100
- Plant response rating, Redstem [11]: 0
- Rice, Transplanted plant response rating ([12]; 32 g ai/ha): 0
- Rice, Transplanted plant response rating ([12]; 64 g ai/ha): 0
- Rice, Transplanted plant response rating ([12]; 125 g ai/ha): 0
- Rice, Transplanted plant response rating ([12]; 250 g ai/ha): 20
- Plant response rating, Rice, Transplanted [12]: 0
- Flatsedge, Rice plant response rating ([13]; 32 g ai/ha): 35
- Flatsedge, Rice plant response rating ([13]; 64 g ai/ha): 60
- Flatsedge, Rice plant response rating ([13]; 125 g ai/ha): 60
- Flatsedge, Rice plant response rating ([13]; 250 g ai/ha): 80
- Plant response rating, Flatsedge, Rice [13]: 25
- Junglerice plant response rating ([14]; 32 g ai/ha): 0
- Junglerice plant response rating ([14]; 64 g ai/ha): 0
- Junglerice plant response rating ([14]; 125 g ai/ha): 50
- Junglerice plant response rating ([14]; 250 g ai/ha): 50
- Plant response rating, Junglerice [14]: 0
- Sedge, Umbrella plant response rating ([15]; 32 g ai/ha): 80
- Sedge, Umbrella plant response rating ([15]; 64 g ai/ha): 80
- Sedge, Umbrella plant response rating ([15]; 125 g ai/ha): 90
- Sedge, Umbrella plant response rating ([15]; 250 g ai/ha): 100
- Plant response rating, Sedge, Umbrella [15]: 70
- Watergrass, Early plant response rating ([16]; 32 g ai/ha): 0
- Watergrass, Early plant response rating ([16]; 64 g ai/ha): 10
- Watergrass, Early plant response rating ([16]; 125 g ai/ha): 20
- Watergrass, Early plant response rating ([16]; 250 g ai/ha): 30
- Plant response rating, Watergrass, Early [16]: 0
- Ducksalad plant response rating ([17]; 32 g ai/ha): 100
- Ducksalad plant response rating ([17]; 64 g ai/ha): 100
- Ducksalad plant response rating ([17]; 125 g ai/ha): 100
- Ducksalad plant response rating ([17]; 250 g ai/ha): 100
- Plant response rating, Ducksalad [17]: 100

Source: patent US8802597B2, “Herbicidal pyrimidines” (E I du Pont de Nemours and Company, priority 2003, dated 2014)
